From ChEMBL document CHEMBL6182832, “Design and synthesis of coumarin-based amphoteric antimicrobials with biofilm interference and immunoregulation effects” (RSC Med Chem, 2025)
≈ marks a conversion by molar mass, not a printed value. Calls of active or inactive are those of the source. No cut-off for these calls is given here.

Experiments:
Escherichia coli [1] = experiment: Antibacterial activity against clinically isolated Escherichia coli ATCC25922 assessed as inhibition of bacterial growth measured after 16 to 24 hrs by broth microdilution method; format: functional; settings: time 16-24 hrs, read-out: MIC100
Escherichia coli [2] = experiment: Antibacterial activity against clinically isolated Escherichia coli DE17 assessed as inhibition of bacterial growth measured after 16 to 24 hrs by broth microdilution method; format: functional; settings: time 16-24 hrs, read-out: MIC100
Staphylococcus aureus [3] = experiment: Antibacterial activity against clinically isolated Staphylococcus aureus ATCC29213 assessed as inhibition of bacterial growth measured after 16 to 24 hrs by broth microdilution method; format: functional; settings: time 16-24 hrs, read-out: MIC100
Staphylococcus aureus [4] = experiment: Antibacterial activity against clinically isolated methicillin-resistant Staphylococcus aureus assessed as inhibition of bacterial growth measured after 16 to 24 hrs by broth microdilution method; format: functional; settings: time 16-24 hrs, read-out: MIC100
Bacillus subtilis = experiment: Antibacterial activity against clinically isolated Bacillus subtilis ATCC6633 assessed as inhibition of bacterial growth measured after 16 to 24 hrs by broth microdilution method; format: functional; settings: time 16-24 hrs, read-out: MIC100
Bacillus cereus = experiment: Antibacterial activity against clinically isolated Bacillus cereus CMCC63303 assessed as inhibition of bacterial growth measured after 16 to 24 hrs by broth microdilution method; format: functional; settings: time 16-24 hrs, read-out: MIC100
Listeria monocytogenes = experiment: Antibacterial activity against clinically isolated Listeria monocytogenes CICC21662 assessed as inhibition of bacterial growth measured after 16 to 24 hrs by broth microdilution method; format: functional; settings: time 16-24 hrs, read-out: MIC100
Enterococcus faecalis = experiment: Antibacterial activity against clinically isolated Enterococcus faecalis ATCC29212 assessed as inhibition of bacterial growth measured after 16 to 24 hrs by broth microdilution method; format: functional; settings: time 16-24 hrs, read-out: MIC100
[5] = Hemolytic activity in rabbit erythrocytes assessed as hemolysis at 0.5 to 125 ug/ml; format: toxicity, cell-based, Oryctolagus cuniculus; settings: erythrocyte, dose 0.5-125 µg/ml
RAW264.7 = experiment: Anti-inflammatory activity against mouse RAW264.7 cells assessed as inhibition LPS-stimulated NO production 0.5 to 4 ug/ml measured after 24 hrs by NO assay kit; format: functional, cell-based; settings: dose 0.5-4 µg/ml
Staphylococcus aureus [6] = experiment: Anti-biofilm activity against clinically isolated Staphylococcus aureus ATCC29213 assessed inhibition of biofilm formation at 0.5 to 128 ug/ml measured after 12 to 16 hrs incubation by crystal violet staining based analysis; format: functional, organism-based; settings: dose 0.5-128 µg/ml, time 12-16 hrs
Escherichia coli [7] = experiment: Anti-biofilm activity against clinically isolated Escherichia coli DE17 assessed inhibition of biofilm formation at 0.5 to 128 ug/ml measured after 12 to 16 hrs incubation by crystal violet staining based analysis; format: functional, organism-based; settings: dose 0.5-128 µg/ml, time 12-16 hrs
[8] = Hemolytic activity in rabbit erythrocytes assessed as hemolysis at >8 ug/ml; format: toxicity, cell-based, Oryctolagus cuniculus; settings: erythrocyte, dose > 8 µg/ml
Staphylococcus aureus [9] = experiment: Anti-biofilm activity against clinically isolated Staphylococcus aureus ATCC29213 assessed inhibition of biofilm formation at 2 ug/ml measured after 12 to 16 hrs incubation by crystal violet staining based analysis; format: functional; settings: time 12-16 hrs
Staphylococcus aureus [10] = experiment: Anti-biofilm activity against clinically isolated Staphylococcus aureus ATCC29213 assessed inhibition of biofilm formation at 4 ug/ml measured after 12 to 16 hrs incubation by crystal violet staining based analysis; format: functional; settings: time 12-16 hrs
Escherichia coli [11] = experiment: Anti-biofilm activity against clinically isolated Escherichia coli DE17 assessed inhibition of biofilm formation at 8 ug/ml measured after 12 to 16 hrs incubation by crystal violet staining based analysis; format: functional; settings: time 12-16 hrs
Escherichia coli [12] = experiment: Anti-biofilm activity against clinically isolated Escherichia coli DE17 assessed inhibition of biofilm formation at 16 ug/ml measured after 12 to 16 hrs incubation by crystal violet staining based analysis; format: functional; settings: time 12-16 hrs
Staphylococcus aureus [13] = experiment: Biofilm eradication activity against Staphylococcus aureus ATCC29213 assessed biofilm scavenging at 4 ug/ml measured after 12 to 16 hrs incubation by crystal violet staining based analysis; format: functional, organism-based; settings: dose 4.0 µg/ml, time 12-16 hrs
Escherichia coli [14] = experiment: Biofilm eradication activity against Escherichia coli DE17 assessed biofilm scavenging at 16 ug/ml measured after 12 to 16 hrs incubation by crystal violet staining based analysis; format: functional, organism-based; settings: dose 16.0 µg/ml, time 12-16 hrs

Compound	MIC (Escherichia coli [1]) [µg/mL]	MIC (Escherichia coli [2]) [µg/mL]	MIC (Staphylococcus aureus [3]) [µg/mL]	MIC (Staphylococcus aureus [4]) [µg/mL]	also measured
CN(C)CCCCCCCCCCCCOc1ccc2ccc(=O)oc2c1	> 256	> 256	16 (≈ 42.8 µM)	4 (≈ 10.7 µM)	
CCN(CC)CCCCCCCCOc1ccc2ccc(=O)oc2c1	> 256	> 256	64 (≈ 185 µM)	64 (≈ 185 µM)	
CCCCN(CCCC)CCCCOc1ccc2ccc(=O)oc2c1	> 256	> 256	> 256	> 256	
CN(C)CCCCOc1cc(=O)oc2ccccc12	> 256	> 256	> 256	> 256	
O=c1cc(O)c2ccccc2o1 [4-HYDROXYCOUMARINS]	> 256	> 256	256 (≈ 1580 µM)	> 256	MIC (Bacillus subtilis): > 256 µg/mL; MIC (Bacillus cereus): > 256 µg/mL; MIC (Listeria monocytogenes): > 256 µg/mL; MIC (Enterococcus faecalis): > 256 µg/mL
CCCCN(CCCC)CCCCCCCCCCCCOc1cc(=O)oc2ccccc12	> 256	> 256	4 (≈ 8.74 µM)	4 (≈ 8.74 µM)	MIC (Bacillus subtilis): 1 µg/mL (≈ 2.18 µM); MIC (Bacillus cereus): 8 µg/mL (≈ 17.5 µM); MIC (Listeria monocytogenes): 1 µg/mL (≈ 2.18 µM); MIC (Enterococcus faecalis): 4 µg/mL (≈ 8.74 µM)
CCCN(CCC)CCCCOc1cc(=O)oc2ccccc12	> 256	> 256	> 256	> 256	
CN[C@H](CC(C)C)C(=O)N[C@H]1C(=O)N[C@@H](CC(N)=O)C(=O)N[C@H]2C(=O)N[C@H]3C(=O)N[C@H](C(=O)N[C@H](C(=O)O)c4cc(O)cc(O)c4-c4cc3ccc4O)[C@H](O)c3ccc(c(Cl)c3)Oc3cc2cc(c3O[C@@H]2O[C@H](CO)[C@@H](O)[C@H](O)[C@H]2O[C@H]2C[C@](C)(N)[C@H](O)[C@H](C)O2)Oc2ccc(cc2Cl)[C@H]1O [VANCOMYCIN]	> 256	> 256			MIC (Bacillus subtilis): 0.5 µg/mL (≈ 0.345 µM); MIC (Listeria monocytogenes): 0.5 µg/mL (≈ 0.345 µM); MIC (Enterococcus faecalis): 2 µg/mL (≈ 1.38 µM)
CCN1CCN(c2cc3c(cc2F)c(=O)c(C(=O)O)cn3C2CC2)CC1 [ENROFLOXACIN]	0.031 (≈ 0.0863 µM)	0.031 (≈ 0.0863 µM)	0.062 (≈ 0.173 µM)	32 (≈ 89 µM)	
CN(C)CCCCCCCCCCCCOc1cc(=O)oc2ccccc12	> 256	> 256	4 (≈ 10.7 µM)	4 (≈ 10.7 µM)	
CCCN(CCC)CCCCCCCCCCCCOc1cc(=O)oc2ccccc12	> 256	> 256	4 (≈ 9.31 µM)	2 (≈ 4.66 µM)	
CCN(CC)CCCCCCCCOc1cc(=O)oc2ccccc12	> 256	> 256	64 (≈ 185 µM)	4 (≈ 11.6 µM)	
CCCN(CCC)CCCCCCCCOc1cc(=O)oc2ccccc12	> 256	> 256	16 (≈ 42.8 µM)	32 (≈ 85.7 µM)	
CCCCN(CCCC)CCCCOc1cc(=O)oc2ccccc12	> 256	> 256	256 (≈ 741 µM)	> 256	
CCCN(CCC)CCCCOc1ccc2ccc(=O)oc2c1	> 256	> 256	> 256	> 256	
CCCCN(CCCC)CCCCCCCCOc1ccc2ccc(=O)oc2c1	> 256	> 256	16 (≈ 39.8 µM)	32 (≈ 79.7 µM)	
CN(C)CCCCOc1ccc2ccc(=O)oc2c1	> 256	> 256	> 256	> 256	
O=c1ccc2ccc(O)cc2o1 [UMBELLIFERONE]	> 256	> 256	> 256	> 256	Activity [5]: Non-toxic; MIC (Bacillus subtilis): > 256 µg/mL; MIC (Bacillus cereus): > 256 µg/mL; MIC (Listeria monocytogenes): > 256 µg/mL; MIC (Enterococcus faecalis): > 256 µg/mL; Activity (RAW264.7): inactive; Activity (Staphylococcus aureus [6]): inactive; Activity (Escherichia coli [7]): inactive
CCN(CC)CCCCOc1ccc2ccc(=O)oc2c1	> 256	> 256	> 256	> 256	
CCN(CC)CCCCOc1cc(=O)oc2ccccc12	> 256	> 256	> 256	> 256	
CCCCN(CCCC)CCCCCCCCCCCCOc1ccc2ccc(=O)oc2c1	> 256	> 256	1 (≈ 2.18 µM)	4 (≈ 8.74 µM)	
CCN(CC)CCCCCCCCCCCCOc1cc(=O)oc2ccccc12	> 256	> 256	2 (≈ 4.98 µM)	2 (≈ 4.98 µM)	MIC (Bacillus subtilis): 1 µg/mL (≈ 2.49 µM); MIC (Bacillus cereus): 4 µg/mL (≈ 9.96 µM); MIC (Listeria monocytogenes): 1 µg/mL (≈ 2.49 µM); MIC (Enterococcus faecalis): 4 µg/mL (≈ 9.96 µM); Activity [8]: Toxic; Activity (RAW264.7): Active; Activity (Staphylococcus aureus [6]): Dose-dependent-effect; Activity (Escherichia coli [7]): Dose-dependent-effect; inhibition at 2 µg/mL (Staphylococcus aureus [9]): 100%; inhibition at 4 µg/mL (Staphylococcus aureus [10]): 100%; inhibition at 8 µg/mL (Escherichia coli [11]): 100%; inhibition at 16 µg/mL (Escherichia coli [12]): 100%; Activity (Staphylococcus aureus [13]): Active; Activity (Escherichia coli [14]): Active
CCCN(CCC)CCCCCCCCOc1ccc2ccc(=O)oc2c1	> 256	> 256	32 (≈ 85.7 µM)	32 (≈ 85.7 µM)	
CCCCN(CCCC)CCCCCCCCOc1cc(=O)oc2ccccc12	> 256	> 256	16 (≈ 39.8 µM)	32 (≈ 79.7 µM)	
CN(C)CCCCCCCCOc1ccc2ccc(=O)oc2c1	> 256	> 256	> 128	64 (≈ 202 µM)	
CN(C)CCCCCCCCOc1cc(=O)oc2ccccc12	> 256	> 256	32 (≈ 101 µM)	64 (≈ 202 µM)	
CCCN(CCC)CCCCCCCCCCCCOc1ccc2ccc(=O)oc2c1	> 256	> 256	8 (≈ 18.6 µM)	4 (≈ 9.31 µM)	
